According to publication PMC9681850, “Structural basis of synthetic agonist activation of the nuclear receptor REV-ERB” (Nature Communications, 2022):
Where “and” joins values, the source holds several entries; their conditions need not be identical. Equal entries are not always repeated.

What was measured:
DAT = DAT (Homo sapiens, UniProt Q01959); experiment: PDSP radioligand binding assay; settings: read-out: RLBA Ki
Text: (§1) Receptor RLBA Ki Receptor activity
(§2) Suppl ementary Tabl e 1. Speci fi ci ty of STL1267. […]

5-HT1E = target: T1, 5-HT1E (Homo sapiens, UniProt P28566); experiment: PDSP radioligand binding assay; settings: read-out: RLBA Ki
T1 construct: NIMH Psychoactive Drug Screening Program (assay performed there)
T1 sequence (P28566 whole entry, species assumed): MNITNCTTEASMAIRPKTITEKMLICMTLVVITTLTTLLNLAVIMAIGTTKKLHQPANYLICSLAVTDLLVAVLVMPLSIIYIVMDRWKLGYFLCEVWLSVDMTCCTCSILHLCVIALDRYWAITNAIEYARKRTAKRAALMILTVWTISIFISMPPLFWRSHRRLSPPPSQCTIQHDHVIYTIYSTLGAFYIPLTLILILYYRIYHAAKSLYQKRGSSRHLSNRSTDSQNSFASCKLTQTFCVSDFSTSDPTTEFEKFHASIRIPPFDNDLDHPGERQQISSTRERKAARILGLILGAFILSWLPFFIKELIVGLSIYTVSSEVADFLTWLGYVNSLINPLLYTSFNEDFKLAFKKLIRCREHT
Text: as §1, §2

REV-ERBα LBD = target: T2, REV-ERBα LBD (Homo sapiens, UniProt P20393); experiment: scintillation proximity radioligand binding assay with 3H-STL1267; design: made in house; settings: SPA
T2 sequence (P20393 284-614 limits assumed): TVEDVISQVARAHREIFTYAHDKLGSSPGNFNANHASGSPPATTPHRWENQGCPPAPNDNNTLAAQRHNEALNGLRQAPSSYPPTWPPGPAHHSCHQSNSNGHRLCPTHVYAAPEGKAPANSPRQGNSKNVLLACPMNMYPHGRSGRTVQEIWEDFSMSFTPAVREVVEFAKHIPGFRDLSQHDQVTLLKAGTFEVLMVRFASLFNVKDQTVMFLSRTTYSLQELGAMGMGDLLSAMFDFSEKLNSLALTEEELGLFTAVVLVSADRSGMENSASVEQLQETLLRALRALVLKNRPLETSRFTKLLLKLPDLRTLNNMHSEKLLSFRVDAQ

PXR = PXR (Homo sapiens, UniProt O75469); experiment: PXR assay; assay type: cell-based; settings: relative to 5μM rifampicin
PXR, sequence (O75469 whole entry): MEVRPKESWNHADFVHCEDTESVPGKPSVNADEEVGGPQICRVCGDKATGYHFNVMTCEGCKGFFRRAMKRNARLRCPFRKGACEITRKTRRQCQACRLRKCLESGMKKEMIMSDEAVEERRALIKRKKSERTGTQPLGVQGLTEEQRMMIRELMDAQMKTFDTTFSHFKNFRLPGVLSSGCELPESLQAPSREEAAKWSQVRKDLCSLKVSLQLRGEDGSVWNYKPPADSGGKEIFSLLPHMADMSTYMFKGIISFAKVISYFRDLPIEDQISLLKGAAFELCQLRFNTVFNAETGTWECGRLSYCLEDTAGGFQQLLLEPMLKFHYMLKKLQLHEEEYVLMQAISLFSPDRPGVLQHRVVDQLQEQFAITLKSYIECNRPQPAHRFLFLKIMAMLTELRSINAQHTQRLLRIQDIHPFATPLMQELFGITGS
Text: We thank the reviewers for the constructive comments, and we have responded to each of the […]
Overall, this is a commendable structure-function study on the transcriptional repressor, REV-ERBα. It includes the identification of an agonist that belongs to the non-heme class of small ligands. The study combines cell-based and in vitro, in vivo, and crystallographic analyses of the ligand-receptor molecular complex.
However, as a spring-board for therapeutic drug discovery, there are a few additional issues that may need to be clarified.
1. In the HEK293 2-hybrid assay, the ERB agonists are described as activators of transcription.
Perhaps, they would be more appropriately described as 'repressors'.
We have updated the manuscript to clarify this issue. In the original manuscript, we used the following to describe how the 2-hybrid assay switches agonists from repressors to activators to allow for better resolution of activity, “This format of the assay essentially functions as a mammalian 2-hybrid assay and detects REVERB agonists as activators of transcription effectively enhancing the sensitivity of such an assay from the typical one hybrid system that detects enhancement of transcriptional repression.” […]

[1] = target: kappa opioid receptor (KOR) (Homo sapiens, UniProt P41145); experiment: PDSP radioligand binding assay; settings: secondary full displacement curve, read-out: RLBA Ki
kappa opioid receptor (KOR), sequence (P41145 whole entry, the tested form may be a part): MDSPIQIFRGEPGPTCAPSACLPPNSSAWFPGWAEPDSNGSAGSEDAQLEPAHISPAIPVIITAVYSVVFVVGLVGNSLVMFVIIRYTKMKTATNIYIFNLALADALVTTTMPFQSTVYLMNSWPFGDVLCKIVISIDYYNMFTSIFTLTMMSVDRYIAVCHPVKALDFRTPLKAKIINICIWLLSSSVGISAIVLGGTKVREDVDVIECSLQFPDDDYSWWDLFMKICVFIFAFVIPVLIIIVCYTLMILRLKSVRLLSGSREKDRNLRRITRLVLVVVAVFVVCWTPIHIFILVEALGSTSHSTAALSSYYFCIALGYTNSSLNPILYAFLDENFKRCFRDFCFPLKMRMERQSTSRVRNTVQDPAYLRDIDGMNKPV
Text: (§3) We assessed the specificity of STL1267 using both in house nuclear receptor Gal4-NR reporter assays and the NIMH Psychoactive Drug Screening Program (PDSP) assays. We assessed the specificity of STL1267 in the PDSP’s radioligand displacement assays, screening for binding to off-target GPCRs, ion channels, transporters, and other drug targets (Table S1). Of the 43 targets assessed in this panel, we observed no detectable binding in 41 of them. […] Additional assessment in serotonin transporter and kappa opioid receptor activity in a functional assay may be warranted to determine absolute specificity. […]
as §1, §2

[2] = target: serotonin transporter (SERT) (Homo sapiens, UniProt P31645); experiment: PDSP radioligand binding assay; settings: secondary full displacement curve, read-out: RLBA Ki
serotonin transporter (SERT), sequence (P31645 whole entry, species assumed): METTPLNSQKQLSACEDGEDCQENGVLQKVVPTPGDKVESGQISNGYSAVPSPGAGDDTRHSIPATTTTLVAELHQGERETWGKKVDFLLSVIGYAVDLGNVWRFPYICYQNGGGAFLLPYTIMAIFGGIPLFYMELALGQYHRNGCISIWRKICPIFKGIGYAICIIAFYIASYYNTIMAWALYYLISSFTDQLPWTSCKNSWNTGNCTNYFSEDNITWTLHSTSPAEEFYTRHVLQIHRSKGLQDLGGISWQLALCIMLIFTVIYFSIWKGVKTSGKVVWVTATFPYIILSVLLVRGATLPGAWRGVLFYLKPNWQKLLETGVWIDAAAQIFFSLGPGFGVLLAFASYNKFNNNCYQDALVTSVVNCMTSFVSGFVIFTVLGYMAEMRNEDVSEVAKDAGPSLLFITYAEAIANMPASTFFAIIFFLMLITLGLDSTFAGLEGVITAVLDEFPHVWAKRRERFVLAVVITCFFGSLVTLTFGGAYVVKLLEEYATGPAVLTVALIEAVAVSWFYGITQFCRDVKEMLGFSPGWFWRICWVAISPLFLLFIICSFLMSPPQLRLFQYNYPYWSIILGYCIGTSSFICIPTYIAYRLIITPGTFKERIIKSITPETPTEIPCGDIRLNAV
Text: as §3, §1, §2

MR = MR (Homo sapiens, UniProt P08235); experiment: Gal4-UAS reporter assay for nuclear receptor specificity; assay type: cell-based; settings: Gal4 DBD-NR, HEK293 cells, 10 µM
MR, sequence (P08235 726-984 limits assumed): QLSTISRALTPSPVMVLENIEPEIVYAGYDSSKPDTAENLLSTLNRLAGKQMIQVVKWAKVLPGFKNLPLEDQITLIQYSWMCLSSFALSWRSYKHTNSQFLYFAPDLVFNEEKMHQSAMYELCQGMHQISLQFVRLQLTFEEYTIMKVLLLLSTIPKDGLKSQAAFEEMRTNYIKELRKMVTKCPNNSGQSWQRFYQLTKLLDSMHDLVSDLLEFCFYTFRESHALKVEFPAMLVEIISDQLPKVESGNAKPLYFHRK
Text: (§4) We assessed the specificity of STL1267 using both in house nuclear receptor Gal4-NR reporter assays and the NIMH Psychoactive Drug Screening Program (PDSP) assays. We assessed the specificity of STL1267 in the PDSP’s radioligand displacement assays, screening for binding to off-target GPCRs, ion channels, transporters, and other drug targets (Table S1). Of the 43 targets assessed in this panel, we observed no detectable binding in 41 of them. […] Additional assessment in serotonin transporter and kappa opioid receptor activity in a functional assay may be warranted to determine absolute specificity.
as §1, §2
(§5) HEK293 cells transfected with Gal4-UAS l uc i f eras e and […]

ERα = ERα (Homo sapiens, UniProt P03372); experiment: as above; assay type: cell-based; settings: Gal4 DBD-NR, HEK293 cells, 10 µM; ERa
ERα, sequence (P03372 311-547 limits assumed): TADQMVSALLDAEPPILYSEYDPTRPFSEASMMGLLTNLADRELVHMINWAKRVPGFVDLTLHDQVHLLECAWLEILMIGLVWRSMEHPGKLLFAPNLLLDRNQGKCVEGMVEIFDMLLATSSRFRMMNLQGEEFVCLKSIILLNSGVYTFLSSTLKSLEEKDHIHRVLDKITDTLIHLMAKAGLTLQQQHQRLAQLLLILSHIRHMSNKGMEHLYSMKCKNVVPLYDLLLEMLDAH
Text: as §4, §1, §2, §5

AR = AR (Homo sapiens, UniProt P10275); experiment: as above; assay type: cell-based; settings: Gal4 DBD-NR, HEK293 cells, 10 µM
AR, sequence (P10275 669-920 limits assumed): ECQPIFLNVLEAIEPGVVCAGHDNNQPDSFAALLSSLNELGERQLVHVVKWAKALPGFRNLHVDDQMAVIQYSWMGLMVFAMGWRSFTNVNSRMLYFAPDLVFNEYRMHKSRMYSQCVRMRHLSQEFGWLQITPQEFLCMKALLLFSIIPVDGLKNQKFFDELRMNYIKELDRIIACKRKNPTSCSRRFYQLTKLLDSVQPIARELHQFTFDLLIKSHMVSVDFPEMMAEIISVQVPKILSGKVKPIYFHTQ
Text: as §4, §1, §2, §5

ERβ = ERβ (Homo sapiens, UniProt Q92731); experiment: as above; assay type: cell-based; settings: Gal4 DBD-NR, HEK293 cells, 10 µM; ERb
ERβ, sequence (Q92731 264-498 limits assumed): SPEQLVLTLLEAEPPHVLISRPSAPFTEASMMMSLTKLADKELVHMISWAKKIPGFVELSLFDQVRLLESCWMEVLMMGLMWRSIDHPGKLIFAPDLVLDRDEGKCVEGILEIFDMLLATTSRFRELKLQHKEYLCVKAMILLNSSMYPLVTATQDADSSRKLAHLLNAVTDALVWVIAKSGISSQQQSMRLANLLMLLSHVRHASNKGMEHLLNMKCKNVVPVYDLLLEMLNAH
Text: as §4, §1, §2, §5

TRα = target: T3, TRα (Homo sapiens, UniProt P10827); experiment: as above; assay type: cell-based; settings: Gal4 DBD-NR, HEK293 cells, 10 µM; TRa
T3 construct: purchased NIMH Psychoactive Drug Screening Program (PDSP); in-house Gal4-NR LBD cotransfection assays
T3 sequence (P10827 1-410 isoform P10827-2): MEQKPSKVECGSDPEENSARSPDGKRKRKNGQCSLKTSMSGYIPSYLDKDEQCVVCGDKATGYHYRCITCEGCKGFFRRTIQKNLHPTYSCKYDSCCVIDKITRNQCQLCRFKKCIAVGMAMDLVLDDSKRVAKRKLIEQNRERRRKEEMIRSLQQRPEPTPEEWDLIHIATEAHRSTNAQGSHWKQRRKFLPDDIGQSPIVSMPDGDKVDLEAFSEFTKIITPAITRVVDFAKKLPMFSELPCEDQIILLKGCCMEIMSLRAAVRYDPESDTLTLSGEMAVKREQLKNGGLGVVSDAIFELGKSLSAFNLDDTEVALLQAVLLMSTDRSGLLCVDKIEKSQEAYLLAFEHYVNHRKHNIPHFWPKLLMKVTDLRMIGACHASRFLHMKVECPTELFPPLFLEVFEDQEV
Text: as §4, §1, §2, §5

PR = PR (Homo sapiens, UniProt P06401); experiment: as above; assay type: cell-based; settings: Gal4 DBD-NR, HEK293 cells, 10 µM
PR, sequence (P06401 679-933 limits assumed): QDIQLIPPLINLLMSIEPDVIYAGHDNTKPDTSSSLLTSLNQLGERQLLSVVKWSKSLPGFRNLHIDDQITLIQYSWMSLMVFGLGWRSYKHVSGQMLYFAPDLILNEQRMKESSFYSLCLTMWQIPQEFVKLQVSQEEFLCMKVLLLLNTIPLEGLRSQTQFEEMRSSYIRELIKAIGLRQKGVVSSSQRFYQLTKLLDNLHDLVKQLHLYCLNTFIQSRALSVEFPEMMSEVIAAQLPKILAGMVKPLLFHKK
Text: as §4, §1, §2, §5

RARα = RARα (Homo sapiens, UniProt P10276); experiment: as above; assay type: cell-based; settings: Gal4 DBD-NR, HEK293 cells, 10 µM; RARa
RARα, sequence (P10276 183-417 limits assumed): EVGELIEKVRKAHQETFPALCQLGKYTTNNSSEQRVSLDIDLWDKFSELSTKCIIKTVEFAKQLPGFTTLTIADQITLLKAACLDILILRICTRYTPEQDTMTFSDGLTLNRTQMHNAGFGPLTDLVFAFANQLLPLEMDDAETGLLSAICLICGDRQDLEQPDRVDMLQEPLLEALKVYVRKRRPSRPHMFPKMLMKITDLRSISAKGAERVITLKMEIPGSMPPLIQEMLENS
Text: as §4, §1, §2, §5

VDR = VDR (Homo sapiens, UniProt P11473); experiment: as above; assay type: cell-based; settings: Gal4 DBD-NR, HEK293 cells, 10 µM
VDR, sequence (P11473 127-427 limits assumed): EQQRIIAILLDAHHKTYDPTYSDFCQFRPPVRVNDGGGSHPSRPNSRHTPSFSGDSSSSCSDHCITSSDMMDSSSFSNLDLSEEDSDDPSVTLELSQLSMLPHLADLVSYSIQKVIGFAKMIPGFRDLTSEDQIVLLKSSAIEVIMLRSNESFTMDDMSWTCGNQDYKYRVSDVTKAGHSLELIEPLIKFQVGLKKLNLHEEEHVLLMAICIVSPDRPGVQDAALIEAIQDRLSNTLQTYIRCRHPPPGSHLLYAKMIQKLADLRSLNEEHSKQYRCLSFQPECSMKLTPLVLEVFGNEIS
Text: as §4, §1, §2, §5

LXRα = LXRα (Homo sapiens, UniProt Q13133); experiment: as above; assay type: cell-based; settings: Gal4 DBD-NR, HEK293 cells, 10 µM; LXRa
LXRα, sequence (Q13133 209-447 limits assumed): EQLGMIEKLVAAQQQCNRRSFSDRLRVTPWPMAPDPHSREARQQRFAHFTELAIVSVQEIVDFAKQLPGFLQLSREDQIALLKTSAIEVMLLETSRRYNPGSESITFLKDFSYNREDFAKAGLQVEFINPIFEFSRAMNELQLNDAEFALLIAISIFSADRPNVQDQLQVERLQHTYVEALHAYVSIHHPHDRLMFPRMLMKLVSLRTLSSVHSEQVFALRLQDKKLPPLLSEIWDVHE
Text: as §4, §1, §2, §5

DAT, sequence (Q01959 whole entry, species assumed): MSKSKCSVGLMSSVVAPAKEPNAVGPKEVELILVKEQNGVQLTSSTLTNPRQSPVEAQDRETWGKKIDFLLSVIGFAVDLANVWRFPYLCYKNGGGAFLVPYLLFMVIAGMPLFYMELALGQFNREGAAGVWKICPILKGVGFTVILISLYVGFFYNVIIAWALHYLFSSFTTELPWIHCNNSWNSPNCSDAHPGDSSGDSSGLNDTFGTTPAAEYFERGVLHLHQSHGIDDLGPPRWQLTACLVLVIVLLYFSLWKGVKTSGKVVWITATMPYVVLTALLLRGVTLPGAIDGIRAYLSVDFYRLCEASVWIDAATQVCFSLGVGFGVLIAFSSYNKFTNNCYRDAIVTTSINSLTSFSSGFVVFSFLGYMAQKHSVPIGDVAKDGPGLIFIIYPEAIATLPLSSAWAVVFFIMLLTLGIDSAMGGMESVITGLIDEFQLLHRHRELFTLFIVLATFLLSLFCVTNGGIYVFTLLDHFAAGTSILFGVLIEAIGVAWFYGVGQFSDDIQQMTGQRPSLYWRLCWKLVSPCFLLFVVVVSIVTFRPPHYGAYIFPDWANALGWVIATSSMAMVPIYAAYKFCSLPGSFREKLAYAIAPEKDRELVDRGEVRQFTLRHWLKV

For `Clc1nnc2ccc(Oc3ccccc3-c3ccccc3)nn12` [STL1267], the Ki (DAT) was over 10000 nM, the Ki (5-HT1E) was over 10000 nM and the Ki (REV-ERBα LBD; REV-ERBα LBD, read-out: Ki, displacement of 3H-STL1267) was 160 nM. The “potency relative to SR9009 in the radioligand binding assay” value (REV-ERBα LBD) was 4.3 fold, the “activity at PXR, of the activity of 5μM rifampicin” value (PXR) was 18% and the Ki [1] was 720 nM. For the same compound, the Ki [2] was 2000 to 4000 nM and 2100 nM, the activity (MR) was “did not detect activity” and the activity (ERα) was “did not detect activity”. For the same compound, the activity (AR) was “did not detect activity”, the activity (ERβ) was “did not detect activity” and the activity (TRα) was “did not detect activity”. The activity (PR) was “did not detect activity”, the activity (RARα) was “did not detect activity” and the activity (VDR) was “did not detect activity”. For the same compound, the activity (LXRα) was “did not detect activity”.
